Columns and labels:
[1] = target: PRMT1 (Homo sapiens, UniProt Q99873); test: PRMT1 enzyme activity test; format: biochemical; conditions: 0.5 nM PRMT1, 3H-SAM, peptide
Experimental: PRMT1 enzyme activity test were performed in a buffer prepared on the same day 5 consisting of 10 mMTirs-HCl (pH=8.0), 0.01% Tween-20 and 1 mM DTT. The compounds were prepared to the highest inhibitor concentration ultimately required in the 100× reaction with 100% DMSO and then transferred to one well of a 384-well Echo plate (Echo-eligible 384-well polypropylene microplates 2.0, transparent, flat-bottomed) and sequentially diluted in the next well with a 3-fold dilution of 100% DMSO, and so on, with a total of 10 concentrations based on Precision. 100% DMSO was added to two empty wells to serve as control well without compound and control well without enzyme in the same 384-well Echo plate. 250 nL of compound was transferred from each well of the 384-well Echo plate to a 384-well assay plate (384-well polypropylene storage microplate) via the Echo 550 liquid processor. For wells with compounds and control well without compound, a mixture (15 uL) containing PRMT1 enzyme was added to the 384-well assay plate. For control wells without enzyme, the mixture containing the assay buffer (15 uL) was added instead. The compounds were allowed to incubate with PRMT1 for 15 minutes at room temperature, and then a mixture containing ^3H-SAM and peptide (10 uL) was added to start the reaction (final volume=25 uL). The final concentrations of the components were as follows: 0.5 nM for PRMT1, 0.25 uM for ^3H-SAM, 0.1 uM for the peptide, and 1% DMSO. After 120 min of incubation, the assay was terminated by the addition of non-radiolabeled SAM (5 uL) to a final concentration of 125 uM, which diluted 3H-SAM to a level at which its incorporation into the peptide substrate was no longer detected. 25 μL of the reaction solution from the 384-well assay plate was then transferred to a 384-well detection plate (Streptavidin FlashPlate HTS PLUS, high volume, 384 wells). The biotinylated peptide was allowed to bind to the surface of the antibiotic protein streptavidin for at least 60 minutes at room temperature. The Flashplate was then washed three times with 0.1% Tween-20 in a BioTek plate washer. Plates were read on a microplate counter (MicroBeta2) to measure the amount of ^3H-labeled peptide bound to the surface of the detection plate, measured in counts per minute (cpm).
The raw data were copied from the Reader and the inhibition values were calculated in Excel by Equation (1), Equation (1): Inh %=(CPMmax−CPMcmpd)/(CPMmax−CPMmin)*100, wherein the Max signal was obtained from the enzyme-substrate interaction and the Min signal was obtained from the substrate. IC50 values were obtained by fitting the data through equation (2) using XLFit add-in for Excel version […]. Equation (2): Y=Bottom+(Top-Bottom)/(1+((IC50/X)[…])), wherein, Y represents inhibition percentage and X represents compound concentration.

[2] = tested on: Toledo cells; test: Toledo cell proliferation inhibition assay; format: cell-based; conditions: Homo sapiens, Toledo, 144 h; six-day assay, CellTiter-Glo
Experimental: • A. Purpose: to determine the effects of compounds on Toledo cells through a six-day cell proliferation assay. • B. Reagents and materials: • 1. Cell culture medium: RPMI 1640+10% FBS • 2. 384-well cell culture plate (Corning, item #3764) • 3. 0.4% Taipan Blue Staining Solution (Thermo Fisher, item #T10282) • 4. cell counting plate (Thermo Fisher, item #C10228) • 5. 50 ml reagent reservoir (Corning, item #4870) • 6. 50 ml conical sterile polypropylene centrifuge tube (Thermo Fisher, item #339653) • 7. Automatic cell counter (Thermo Fisher, item #AMQAX1000) • 8. CellTiter-Glo Luminescent Cell Viability Detection Reagent (Promega, item #G7572) • 9. SpectraMax i3x Multi-Mode Enzyme Labeling Instrument (Megaman Molecular Instruments, item #5024062) • C. Experimental method • 1. Resuspending the cells with a pipette. • 2. 0.4% Taipan blue staining solution and Toledo cells were mixed in equal proportion, and the cells were counted using an automatic cell counter. • 3. Toledo cells were diluted to a final concentration of 2000 cells per well and transferred to a 50 ml reagent reservoir. • 4. Diluted Toledo cells were added to a 384-well cell culture plate, 40 ul per well. • 5. The cells were shortly centrifuged and settled. • 6. The cells were incubated in a 37° C., 5% CO2 cell culture incubator. • 7. The substrate in the CellTiter-Glo Luminescent Cell Viability Detection Reagent was mixed with the solution. • 8. After six days, the 384-well cell culture plate was taken from the incubator and 20 ul of configured CellTiter-Glo reagent was added to each well. • 9. 384-well cell culture platewasmixed in an orbital shaker for 30 minutes. • 10. Signal of luminescence was detected with a SpectraMax i3x multi-mode enzyme labeling instrument.

Sequence of PRMT1 (Q99873 whole entry): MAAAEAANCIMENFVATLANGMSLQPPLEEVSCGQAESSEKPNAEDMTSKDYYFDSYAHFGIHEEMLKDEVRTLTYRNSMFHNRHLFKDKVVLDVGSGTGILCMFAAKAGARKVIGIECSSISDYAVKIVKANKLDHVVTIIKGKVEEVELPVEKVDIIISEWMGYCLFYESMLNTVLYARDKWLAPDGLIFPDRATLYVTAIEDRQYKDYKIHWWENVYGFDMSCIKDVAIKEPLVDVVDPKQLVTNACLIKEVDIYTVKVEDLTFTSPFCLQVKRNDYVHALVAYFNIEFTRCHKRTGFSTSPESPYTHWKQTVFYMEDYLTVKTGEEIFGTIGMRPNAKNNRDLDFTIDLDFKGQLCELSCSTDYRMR

| IC50 [1] [µM] | Structure (SMILES) | IC50 [2] [µM] |
| --- | --- | --- |
| < 0.05 | CNCCN(C)Cc1ccc(C)nc1C1CCN(c2cc(C)cc(Cl)c2)CC1 [P058] | < 1 |
| < 0.05 | CNCCN(C)Cc1nc(C)ccc1C1CCN(CCc2ccccc2)CC1 [P059] | 1 to 5 |
| < 0.05 | CNCCN(C)Cc1ccccc1C1=CCC(OC(C)C)CC1 (centres unmarked) [P060] | < 1 |
| < 0.05 | CNCCN(C)Cc1ccc(C)nc1C1CCN(c2cccc(C(F)F)c2)CC1 [P061] | < 1 |
| < 0.05 | CNCCN(C)Cc1ccc(C)nc1C1CCN(c2cc(C)cc(C)c2)CC1 [P063] | < 1 |
| < 0.05 | CNCCN(C)Cc1ccc(C)nc1C1CCN(c2ccc(F)c(Cl)c2)CC1 [P064] | < 1 |
| < 0.05 | CNCCN(C)Cc1ccc(C)nc1C1CCN(c2ccc(F)c(C)c2)CC1 [P065] | < 1 |
| < 0.05 | CNCCN(C)Cc1ccc(C)nc1C1CCN(c2cc(C)cc(F)c2)CC1 [P066] | < 1 |
| < 0.05 | CNCCN(C)Cc1ccc(C)nc1C1CCN(c2cc(C)ccc2F)CC1 [P067] | < 1 |
| < 0.05 | CNCCN(C)Cc1ncccc1C1CCN(c2cccc(C(F)(F)F)c2)CC1 [P068] | 1 to 5 |
| < 0.05 | CNCCN(C)Cc1ccc(C(C)N)cc1C1CCc2cc(F)c(F)cc2CC1 (centres unmarked) [P070] | < 1 |
| < 0.05 | CNCCN(C)Cc1ncccc1C1CCN(c2cccc(CN3CCCC3)c2)CC1 [P071] | 1 to 5 |
| < 0.05 | CNCCN(C)Cc1ccc(Cl)nc1C1CCN(c2cccc(C)c2)CC1 [P072] | < 1 |
| < 0.05 | CNCCN(C)Cc1ccc(C)nc1C1CCN(c2cccc(Cl)c2)CC1 [P073] | < 1 |
| < 0.05 | CNCCN(C)Cc1ccc(F)cc1C1CCN(c2cccc(C(C)(C)O)c2)CC1 [P076] | 1 to 5 |
| < 0.05 | CNCCN(C)Cc1ncccc1C1CCN(Cc2cccc(C)c2)CC1 [P077] | 1 to 5 |
| < 0.05 | CNCCN(C)Cc1ncccc1C1CCN(c2cc(C)cc(CN(C)C)c2)CC1 [P082] | 1 to 5 |
| < 0.05 | CNCCN(C)Cc1ccc(C)nc1C1CCN(c2ccc(F)cc2)CC1 [P086] | 1 to 5 |
| < 0.05 | CNCCN(C)Cc1ccc(F)cc1C1CCN(C(=O)Cc2ccccc2)CC1 [P087] | 1 to 5 |
| < 0.05 | CNCCN(C)Cc1ncccc1C1CCN(Cc2ccccc2)CC1 [P090] | < 1 |
| < 0.05 | CNCCN(C)Cc1ncccc1C1CCN(c2cccc(CN(C)C)c2)CC1 [P092] | < 1 |
| < 0.05 | CNCCN(C)Cc1nc(C)ccc1N1CCc2cc(F)c(F)cc2CC1 [P093] | < 1 |
| < 0.05 | CNCCN(C)Cc1ncccc1C1CCN(c2ccc(C)cc2)CC1 [P096] | 1 to 5 |
| < 0.05 | CNCCN(C)Cc1ccncc1C1CCN(c2cccc(C)c2)CC1 [P097] | 1 to 5 |
| < 0.05 | CNCCN(C)Cc1ccc(N(C)C)nc1C1CCN(c2cccc(C)c2)CC1 [P098] | < 1 |
| < 0.05 | CNCCN(C)Cc1ccc(C)nc1C1CCN(c2cccc(N(C)C)c2)CC1 [P099] | 1 to 5 |
| ≥ 0.5 | CNCCN(C)Cc1cc(C(=O)N(C)C)ccc1C1CCN(c2cccc(C)c2)CC1 [P100] | ≥ 5 |
| 0.05 to 0.5 | CNCCN(C)Cc1ccc(C(=O)N(C)C)cc1C1CCN(c2cccc(C)c2)CC1 [P101] | 1 to 5 |

| IC50 [1] [µM] | Structure (SMILES) | IC50 [2] [µM] |
| --- | --- | --- |
| < 0.05 | CNCCN(C)Cc1ncccc1C1CCN(c2cccc(F)c2)CC1 [P102] | < 1 |
| < 0.05 | CNCCN(C)Cc1ccc2nn(C)cc2c1C1CCc2cc(F)c(F)cc2CC1 [P104] | < 1 |
| < 0.05 | CNCCN(C)Cc1ccc(C(C)N)cc1C1CCN(c2cccc(C)c2)CC1 (centres unmarked) [P105] | < 1 |
| < 0.05 | CNCCN(C)Cc1ncccc1C1CCN(c2ccccc2)CC1 [P108] | < 1 |
| < 0.05 | CNCCN(C)Cc1nc(C)ccc1N1CCc2ccccc2CC1 [P109] | < 1 |
| < 0.05 | CNCCN(C)Cc1ccc(C)nc1N1CCc2ccccc2CC1 [P110, N1-((2-(4,5-dihydro-1H-benzo[d]azepin-3(2H)-yl)-6-methylpyridin-3-yl)methyl)-N1,N2-dimethylethane-1,2-diamine] | < 1 |
| < 0.05 | CCOCC1(COCC)CC=C(c2c(C)cccc2CN(C)CCNC)CC1 [P111] | < 1 |
| < 0.05 | CNCCN(C)Cc1ncccc1C1CCN(CC(C)C)CC1 [P113] | < 1 |
| < 0.05 | CNCCN(C)Cc1ccc(C)nc1N1CCN(c2cccc(C)c2)CC1 [P116] | 1 to 5 |
| < 0.05 | CCOCC1(COCC)CC=C(c2ccccc2CN(C)CCNC)CC1 [P117] | < 1 |
| ≥ 0.5 | CNCCN(C)Cc1ncccc1N1CC2CC(C1)c1ccccc12 [P119] | 1 to 5 |
| < 0.05 | CNCCN(C)Cc1ncccc1C1CCN(CC(F)(F)F)CC1 [P120] | 1 to 5 |
| < 0.05 | CCOCC1(COCC)CCN(c2c(Br)cccc2CN(C)CCNC)CC1 [P123] | 1 to 5 |
| ≥ 0.5 | CNCCN(C)Cc1ncccc1N1CCC(N2CCN(C(C)C)CC2)CC1 [P124] | 1 to 5 |
| < 0.05 | CNCCN(C)Cc1ncccc1C1CCCCC1 [P125] | < 1 |
| < 0.05 | CNCCN(C)Cc1ncccc1N1CCC(N2CCCCC2)CC1 [P126] | 1 to 5 |
| < 0.05 | CNCCN(C)Cc1ncccc1N1CCc2ccccc2C1 [P127] | 1 to 5 |
| ≥ 0.5 | CNCCN(C)Cc1ncccc1N1CCCc2ccccc21 [P128] | ≥ 5 |
| < 0.05 | CNCCN(C)Cc1ccc(F)cc1C1CCc2nc3ccccc3nc2CC1 [P132] | < 1 |
| < 0.05 | CNCCN(C)Cc1ncccc1C1CCN(c2ccc(-c3ccncc3)cc2)CC1 [P133] | < 1 |
| < 0.05 | CCOCc1cccc(N2CCC(c3cccnc3CN(C)CCNC)CC2)c1 [P134] | 1 to 5 |
| < 0.05 | CNCCN(C)Cc1ccc(-c2cn[nH]c2)cc1C1CCc2cc(F)c(F)cc2CC1 [P135] | < 1 |
| < 0.05 | CNCCN(C)Cc1ccc(CC(=O)NC)cc1C1CCN(c2cccc(C)c2)CC1 [P140] | < 1 |
| < 0.05 | CNCCN(C)Cc1ncccc1N1CCC(Oc2cc(C)ccc2Cl)CC1 [P144] | < 1 |
| < 0.05 | CNCCN(C)Cc1ncccc1N1CCCCCC1 [P145] | 1 to 5 |
| < 0.05 | CNCCN(C)Cc1ccc2[nH]nc(C)c2c1C1CCc2cc(F)c(F)cc2CC1 [P146, N1-((4-(2,3-difluoro-6,7,8,9-tetrahydro-5H-benzo[7]cyclopenten-7-yl)-3-methyl-1H-indazol-5-yl)methyl)-N1,N2-dimethylethane-1,2-diamine] | < 1 |
| < 0.05 | CNCCN(C)Cc1ccc(F)cc1C1CCN(c2nc(C)cc(N3CCCC3)n2)CC1 [P151] | 1 to 5 |

From US20240307409A1, “ARGININE METHYLTRANSFERASE INHIBITOR AND USE THEREOF” (Cytosinlab Therapeutics Co., Ltd., priority 2021, published 2024)
